Test results from ChEMBL document CHEMBL1201862, “PubChem BioAssay data set” (2004).
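Each compound was tested at five concentrations against cells in 96-well plates for 48 hours. GI50 marks 50% less growth.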 Active and inactive are the calls of the source. Rule as the data show it: active = GI50 up to about 1.1 µM and inactive = higher.

Key:
Test in all cases: NCI tumour cell line growth inhibition, 48 h
SK-MEL-5 = tested on: SK-MEL-5
DU-145 = tested on: DU-145
SF-268 = tested on: SF-268
RPMI-8226 = tested on: RPMI-8226
HCC 2998 = tested on: HCC 2998
SN12C = tested on: SN12C
M14 = tested on: M14
HOP-92 = tested on: HOP-92
CAKI-1 = tested on: CAKI-1
SF-295 = tested on: SF-295
SW-620 = tested on: SW-620
SR = tested on: SR
UACC-62 = tested on: UACC-62
HCT-116 = tested on: HCT-116
U-251 = tested on: U-251
PC-3 = tested on: PC-3
SNB-75 = tested on: SNB-75
SF-539 = tested on: SF-539
K562 = tested on: K562
SNB-19 = tested on: SNB-19

Structure (SMILES)	GI50 (SK-MEL-5)	GI50 (DU-145)	GI50 (SF-268)	GI50 (RPMI-8226)	GI50 (HCC 2998)	GI50 (SN12C)	GI50 (M14)	GI50 (HOP-92)	GI50 (CAKI-1)	GI50 (SF-295)	GI50 (SW-620)	GI50 (SR)	GI50 (UACC-62)	GI50 (HCT-116)	GI50 (U-251)	GI50 (PC-3)	GI50 (SNB-75)	GI50 (SF-539)	GI50 (K562)	GI50 (SNB-19)
O=C1c2ccccc2C(=O)c2c(NC3CCCCC3)ccc(Nc3ccc(S(=O)(=O)O)cc3)c21	63 µM (inactive)	> 100 µM (inactive)	34.8 µM (inactive)	45.2 µM (inactive)	26.5 µM (inactive)	20.6 µM (inactive)	35.1 µM (inactive)	> 100 µM (inactive)	> 100 µM (inactive)	> 100 µM (inactive)	35.2 µM (inactive)	36.1 µM (inactive)	> 100 µM (inactive)	29.7 µM (inactive)	29.6 µM (inactive)	22.6 µM (inactive)	> 100 µM (inactive)	32.2 µM (inactive)	52 µM (inactive)	84.5 µM (inactive)
CCN1CC2=C(OC(N)=C(C#N)C2c2ccc(Cl)cc2)/C(=C/c2ccc(Cl)cc2)C1 (stereo unspecified)	13.1 µM (inactive)	42.4 µM (inactive)	17.8 µM (inactive)	18 µM (inactive)	26.7 µM (inactive)		21.5 µM (inactive)	0.527 µM (active)	10.2 µM (inactive)	30.1 µM (inactive)	44.1 µM (inactive)	31.9 µM (inactive)	26.9 µM (inactive)	14.1 µM (inactive)	16.4 µM (inactive)	18.2 µM (inactive)	12.5 µM (inactive)		8.81 µM (inactive)	15 µM (inactive)
C/C(=N\NC(=S)Nc1ccccc1)c1nc2cccnc2[nH]1	2.69 µM (inactive)	2.84 µM (inactive)	0.583 µM (active)	3.75 µM (inactive)	2.91 µM (inactive)	4.33 µM (inactive)	3.58 µM (inactive)	12.9 µM (inactive)	4.63 µM (inactive)	3.46 µM (inactive)	4.97 µM (inactive)	0.766 µM (active)	2.85 µM (inactive)	1.63 µM (inactive)	2.49 µM (inactive)	3.4 µM (inactive)	12.2 µM (inactive)	1.46 µM (inactive)	3.35 µM (inactive)	5.96 µM (inactive)
Cc1c(/N=N/c2ccccc2)c(C)n(C2OC(CO)C(O)C(O)C2O)c(=S)c1C#N (stereo unspecified)	12.3 µM (inactive)	25.1 µM (inactive)	17 µM (inactive)	40.2 µM (inactive)	21.8 µM (inactive)	20.7 µM (inactive)	25.6 µM (inactive)	16.6 µM (inactive)	40.2 µM (inactive)	34.5 µM (inactive)	29.4 µM (inactive)	21.4 µM (inactive)	1.15 µM (inactive)	21.1 µM (inactive)	23.2 µM (inactive)	24 µM (inactive)	42.2 µM (inactive)	24.1 µM (inactive)	24.4 µM (inactive)	34.8 µM (inactive)
O=C(/C=C/c1ccc(OCCSCCCCCCCCCCSCCOc2ccc(/C=C/C(=O)c3ccc(Cl)cc3)cc2)cc1)c1ccc(Cl)cc1	> 100 µM (inactive)	> 100 µM (inactive)	76 µM (inactive)	> 100 µM (inactive)	> 100 µM (inactive)	> 100 µM (inactive)	> 100 µM (inactive)	47.4 µM (inactive)	> 83.2 µM (inactive)	65.8 µM (inactive)	> 100 µM (inactive)	> 92.7 µM (inactive)	> 80.9 µM (inactive)	> 100 µM (inactive)	65.8 µM (inactive)	> 100 µM (inactive)	30.8 µM (inactive)	45.6 µM (inactive)	> 100 µM (inactive)	> 74.3 µM (inactive)
N/C(=N\c1ccccc1Cl)c1ccccc1N	> 100 µM (inactive)	> 100 µM (inactive)	> 100 µM (inactive)	> 100 µM (inactive)	> 100 µM (inactive)		> 100 µM (inactive)	16 µM (inactive)	> 100 µM (inactive)	> 100 µM (inactive)	> 100 µM (inactive)	> 100 µM (inactive)	> 100 µM (inactive)	> 100 µM (inactive)	> 100 µM (inactive)	> 100 µM (inactive)	95.5 µM (inactive)		> 100 µM (inactive)	> 100 µM (inactive)
CC12ON(P(=O)(c3ccccc3)c3ccccc3)C(C)(c3ccccc31)c1ccccc12	> 100 µM (inactive)	> 100 µM (inactive)	> 100 µM (inactive)	58.9 µM (inactive)	> 100 µM (inactive)	> 100 µM (inactive)	> 100 µM (inactive)	> 100 µM (inactive)	> 100 µM (inactive)	> 100 µM (inactive)	> 100 µM (inactive)	46.1 µM (inactive)	> 100 µM (inactive)	> 100 µM (inactive)	> 100 µM (inactive)	> 100 µM (inactive)	> 100 µM (inactive)	> 100 µM (inactive)	88.3 µM (inactive)	> 100 µM (inactive)
